Assay results from patent US12102706B2, “Peptide composition and respective uses” (Universidade do Minho, priority 2013, dated 2024).
Where “and” joins values, the source holds several entries; their conditions need not be identical. Equal entries are not always repeated.

How the values were obtained:
[1] = Mechanical resistance test (Young modulus) of bleached human hair after direct application of peptide (Example 2); conditions: peptide treatment after bleaching
Description: The hair was supplied from International Hair Importers and Products, Inc. (New York). Hair fibers were pre-treated by bleaching. The formulation was tested in different hair types: • virgin hair washed, with the cuticle intact and absence of chemical damages; • hair after 8 bleaching treatments, at 50° C. in 0.1 M Na2CO3/NaHCO3 buffer, at pH=9, 10% H2O2, for 1 hour.
The incorporation of the peptides was performed by direct application in the hair surface. The mechanical resistance tests were performed after the treatment of the hair with the peptide.
The measurements of mechanical resistance were performed using a cell with 2.5 N maximum load and a deformation rate of 1.5 mm/min. Each hair was individually mounted in the tensile jig by means of a paper template with a fixed gauge length of 20 mm.

[2] = Mechanical test (Young modulus) of bleached human hair treated with serum or mask, with and without peptide (Example 1); conditions: formulations containing the peptide vs without peptide
Description: The tests were performed with in human hair after 8 treatments of bleaching, at 50° C. in 0.1 M Na2CO3/NaHCO3 buffer, at pH=9, 10% H2O2, for 1 hour.
Each of the formulations was tested with and without the peptide sequence ID NO:5, which contains in the sequence 15% of cysteine.
The hair mask was applied to the hair after 8 bleaching treatments, being left to act for 15 minutes, mimicking the procedure indicated in commercial masks. Posteriorly, the hair was washed. The serum was applied to the hair after 8 bleaching treatments, being left to act for 1 hour at 37° C. Posteriorly, the hair was not washed, as in typical commercial procedures the serum should be applied in dry hair. The hair was also tested after 5 applications.
After the treatment, mechanical tests were performed, using a cell with 2.5 N maximum load and a deformation rate of 1.5 mm/min. Each hair was individually mounted in the tensile jig by means of a paper template with a fixed gauge length of 20 mm.

[3] = Mechanical tests (Young modulus, maximum load, stretching) of relaxed (reduced) human hair after peptide treatment (Example 3)
Description: The formulation was tested in different hair types: • virgin hair washed, with the cuticle intact and absence of chemical damages; • hair after reduction treatment, at 37° C. in phosphate buffer at pH=8, with 3M GndHCl and 0.05M DTT for 2 hours.
For the treatment with the peptide SEQ ID NO: 412, concentrations of 0.01% (w/w) were used.

keratin = assay: Binding of Alexa Fluor 647-marked keratin to peptides attached to glass, microarray scanner intensity (Example 4); design: species or system human; conditions: peptide 15 fmol/mm2 on glass; keratin 1 μg/mL, 2 hours at 37° C.; three replicas
Description: In order to assess the interactions between the keratin and some peptides, a keratin solution was prepared. This procedure was performed by immersing African hair, acquired from the International Hair Importers and Products, Inc. (New York), in a solution containing 8 M urea, 0.2 M sodium dodecyl sulfate and 0.5 M sodium bisulfate. The mixture was heated to 50° C. for 24 h in a shaker bath. The solution was dialyzed for several days against double-distilled water. The keratin solution was then concentrated using AMICON with a 3 kDa cut-off.
The reaction was incubated for 1 h30 min at room temperature and in the dark.
The keratin was then diluted to 1 μg/mL in blocking buffer (3% BSA in tris-buffered saline (TBS) with 0.05% Tween 20).
After incubation, the glasses were rinsed in successive washing solutions: TBS+0.1% Tween 20 and blocking buffer with 3% BSA in TBS+0.1% Tween 20, for 3 minutes in each solution.
The imaging of the glasses was performed in Agilent G2565CA Microarray Scanner System. Three replicas of the each peptide incubation were performed and analyzed.

Sequence | Intensity level (average ± standard deviation), normalized (keratin) | other results
GGVCGPSPPC (listed as Homo sapiens) [SEQ.ID NO:409] |  | Young modulus [1]: 5649±1022 MPa
GVCGPSPPCI (listed as Homo sapiens) [SEQ.ID NO:5] |  | mechanical resistance of the damaged hair [2]: increase in mechanical resistance
CGPSPPCITT (listed as Homo sapiens) [SEQ.ID NO:412] |  | hair stretching (average) ([3]; relaxed hair after peptide treatment): 72%; maximum load test, maximum of resistance ([3]; relaxed hair fiber after peptide treatment): 126 MPa; Young modulus (average) ([3]; relaxed hair fiber after peptide treatment at 0.01%): 4190 MPa
ASCVSLLCRP (listed as Homo sapiens) [SEQ.ID NO:179] | 0.990±0.014 | 
CISSSCCPSCC (listed as Homo sapiens) [SEQ.ID NO:1108] | 1 and 1.000 ± 0.000 | 
CLPCLPAASC (listed as Homo sapiens) [SEQ.ID NO:75] | 1 and 1.000 ± 0.000 | 
SCCAPVYCCK (listed as Homo sapiens) [SEQ.ID NO:951] | 1 and 1.000 ± 0.000 | 
CQCSCCKPYCS (listed as Homo sapiens) [SEQ.ID NO:1131] | 1 and 1.000 ± 0.000 | 
CEPAICEPSC (listed as Homo sapiens) [SEQ.ID NO:432] | 1 and 1.000 ± 0.000 | 
